ChEMBL document CHEMBL1148023, “Synthesis and antibacterial activity of derivatives of 6-O-allylic acylides” (2007)
≈ marks a conversion by molar mass, not a printed value.

Tests used:
Assay type in all cases: functional
Staphylococcus aureus [1] = experiment: Antibacterial activity against methicillin-sensitive Staphylococcus aureus 01-430 by broth microdilution method
Staphylococcus aureus [2] = experiment: Antibacterial activity against methicillin-sensitive Staphylococcus aureus 01-431 by broth microdilution method
Staphylococcus aureus [3] = experiment: Antibacterial activity against methicillin-sensitive Staphylococcus aureus 01-481 by broth microdilution method
Staphylococcus aureus [4] = experiment: Antibacterial activity against methicillin-resistant Staphylococcus aureus 01-433 by broth microdilution method
Staphylococcus aureus [5] = experiment: Antibacterial activity against methicillin-resistant Staphylococcus aureus 01-429 by broth microdilution method
Staphylococcus aureus [6] = experiment: Antibacterial activity against methicillin-resistant Staphylococcus aureus 01-483 by broth microdilution method
[7] = system: Staphylococcus epidermidis; experiment: Antibacterial activity against methicillin-sensitive Staphylococcus epidermidis 01-1005 by broth microdilution method
[8] = system: Staphylococcus epidermidis; experiment: Antibacterial activity against methicillin-sensitive Staphylococcus epidermidis 01-1091 by broth microdilution method
[9] = system: Staphylococcus epidermidis; experiment: Antibacterial activity against methicillin-sensitive Staphylococcus epidermidis 01-1004 by broth microdilution method
[10] = system: Staphylococcus epidermidis; experiment: Antibacterial activity against methicillin-resistant Staphylococcus epidermidis 01-1056 by broth microdilution method
[11] = system: Staphylococcus epidermidis; experiment: Antibacterial activity against methicillin-resistant Staphylococcus epidermidis 01-1059 by broth microdilution method
[12] = system: Staphylococcus epidermidis; experiment: Antibacterial activity against methicillin-resistant Staphylococcus epidermidis 01-1090 by broth microdilution method
Streptococcus pneumoniae [13] = experiment: Antibacterial activity against Streptococcus pneumoniae ATCC 49619 by broth microdilution method
Streptococcus pneumoniae [14] = experiment: Antibacterial activity against erythromycin-resistant Streptococcus pneumoniae 03-451 by broth microdilution method
Streptococcus pneumoniae [15] = experiment: Antibacterial activity against erythromycin-resistant Streptococcus pneumoniae 03-436 by broth microdilution method
Streptococcus pneumoniae [16] = experiment: Antibacterial activity against erythromycin-resistant Streptococcus pneumoniae 03-458 by broth microdilution method
Streptococcus pyogenes [17] = experiment: Antibacterial activity against erythromycin-susceptible Streptococcus pyogenes 01-469 by broth microdilution method
Streptococcus pyogenes [18] = experiment: Antibacterial activity against erythromycin-susceptible Streptococcus pyogenes 01-804 by broth microdilution method
Streptococcus pyogenes [19] = experiment: Antibacterial activity against erythromycin-susceptible Streptococcus pyogenes 01-740 by broth microdilution method
Streptococcus pyogenes [20] = experiment: Antibacterial activity against erythromycin-resistant Streptococcus pyogenes 03-680 by broth microdilution method

SMILES	MIC (Staphylococcus aureus [1]) [µg/mL]	MIC (Staphylococcus aureus [2]) [µg/mL]	MIC (Staphylococcus aureus [3]) [µg/mL]	MIC (Staphylococcus aureus [4]) [µg/mL]	MIC (Staphylococcus aureus [5]) [µg/mL]	MIC (Staphylococcus aureus [6]) [µg/mL]	MIC [7] [µg/mL]	MIC [8] [µg/mL]	MIC [9] [µg/mL]	MIC [10] [µg/mL]	MIC [11] [µg/mL]	MIC [12] [µg/mL]	MIC (Streptococcus pneumoniae [13]) [µg/mL]	MIC (Streptococcus pneumoniae [14]) [µg/mL]	MIC (Streptococcus pneumoniae [15]) [µg/mL]	MIC (Streptococcus pneumoniae [16]) [µg/mL]	MIC (Streptococcus pyogenes [17]) [µg/mL]	MIC (Streptococcus pyogenes [18]) [µg/mL]	MIC (Streptococcus pyogenes [19]) [µg/mL]	MIC (Streptococcus pyogenes [20]) [µg/mL]
C=CCO[C@@H]1C[C@@H](C)C(=O)[C@H](C)[C@H]2OC(=O)O[C@]2(C)[C@@H](CC)OC(=O)[C@H](C)[C@@H](OC(=O)Cc2cccc(F)c2)[C@H](C)[C@H]1O[C@@H]1O[C@H](C)C[C@H](N(C)C)[C@H]1O	1 (≈ 1.31 µM)	1 (≈ 1.31 µM)	2 (≈ 2.62 µM)	16 (≈ 20.9 µM)	16 (≈ 20.9 µM)	2 (≈ 2.62 µM)	1 (≈ 1.31 µM)	1 (≈ 1.31 µM)	1 (≈ 1.31 µM)	32 (≈ 41.9 µM)	2 (≈ 2.62 µM)	1 (≈ 1.31 µM)	0.125 (≈ 0.164 µM)	4 (≈ 5.24 µM)	8 (≈ 10.5 µM)	2 (≈ 2.62 µM)	0.125 (≈ 0.164 µM)	0.125 (≈ 0.164 µM)	0.125 (≈ 0.164 µM)	16 (≈ 20.9 µM)
C=CCO[C@@H]1C[C@@H](C)C(=O)[C@H](C)[C@H]2OC(=O)O[C@]2(C)[C@@H](CC)OC(=O)[C@H](C)[C@@H](OC(=O)Cc2c[nH]c3ccccc23)[C@H](C)C1O[C@@H]1O[C@H](C)C[C@H](N(C)C)[C@H]1O (stereo not given in full)	8 (≈ 10.2 µM)	8 (≈ 10.2 µM)	16 (≈ 20.4 µM)	16 (≈ 20.4 µM)	16 (≈ 20.4 µM)	16 (≈ 20.4 µM)	4 (≈ 5.1 µM)	4 (≈ 5.1 µM)	4 (≈ 5.1 µM)	32 (≈ 40.8 µM)	32 (≈ 40.8 µM)	32 (≈ 40.8 µM)	2 (≈ 2.55 µM)	16 (≈ 20.4 µM)	32 (≈ 40.8 µM)	32 (≈ 40.8 µM)	0.5 (≈ 0.637 µM)	0.5 (≈ 0.637 µM)	0.5 (≈ 0.637 µM)	16 (≈ 20.4 µM)
C=CCO[C@@H]1C[C@@H](C)C(=O)[C@H](C)[C@H]2OC(=O)O[C@]2(C)[C@@H](CC)OC(=O)[C@H](C)[C@@H](OC(=O)COc2ccccc2)[C@H](C)[C@H]1OC1O[C@H](C)C[C@H](N(C)C)[C@H]1O (stereo not given in full)	16 (≈ 21 µM)	16 (≈ 21 µM)	32 (≈ 42 µM)	32 (≈ 42 µM)	32 (≈ 42 µM)	32 (≈ 42 µM)	8 (≈ 10.5 µM)	8 (≈ 10.5 µM)	8 (≈ 10.5 µM)	32 (≈ 42 µM)	32 (≈ 42 µM)	32 (≈ 42 µM)	2 (≈ 2.62 µM)	16 (≈ 21 µM)	32 (≈ 42 µM)	16 (≈ 21 µM)	0.5 (≈ 0.656 µM)	1 (≈ 1.31 µM)	0.5 (≈ 0.656 µM)	16 (≈ 21 µM)
C=CCO[C@@H]1C[C@@H](C)C(=O)[C@H](C)[C@H]2OC(=O)O[C@]2(C)[C@@H](CC)OC(=O)[C@H](C)[C@@H](OC(=O)Cc2ccccc2Cl)[C@H](C)[C@H]1OC1O[C@H](C)C[C@H](N(C)C)[C@H]1O (stereo not given in full)	1 (≈ 1.28 µM)	1 (≈ 1.28 µM)	4 (≈ 5.13 µM)	16 (≈ 20.5 µM)	16 (≈ 20.5 µM)	4 (≈ 5.13 µM)	1 (≈ 1.28 µM)	1 (≈ 1.28 µM)	1 (≈ 1.28 µM)	32 (≈ 41 µM)	8 (≈ 10.3 µM)	4 (≈ 5.13 µM)	0.25 (≈ 0.32 µM)	4 (≈ 5.13 µM)	8 (≈ 10.3 µM)	2 (≈ 2.56 µM)	0.062 (≈ 0.0795 µM)	0.125 (≈ 0.16 µM)	0.062 (≈ 0.0795 µM)	16 (≈ 20.5 µM)
CC[C@H]1OC(=O)[C@H](C)[C@@H](O[C@H]2C[C@@](C)(OC)[C@@H](O)[C@H](C)O2)[C@H](C)[C@@H](O[C@@H]2O[C@H](C)C[C@H](N(C)C)[C@H]2O)[C@](C)(OC)C[C@@H](C)C(=O)[C@H](C)[C@@H](O)[C@]1(C)O [CLARITHROMYCIN]	0.25 (≈ 0.334 µM)	0.25 (≈ 0.334 µM)	0.5 (≈ 0.668 µM)	256 (≈ 342 µM)	256 (≈ 342 µM)	256 (≈ 342 µM)	0.125 (≈ 0.167 µM)	0.125 (≈ 0.167 µM)	0.125 (≈ 0.167 µM)	256 (≈ 342 µM)	256 (≈ 342 µM)	256 (≈ 342 µM)	0.25 (≈ 0.334 µM)	32 (≈ 42.8 µM)	128 (≈ 171 µM)	256 (≈ 342 µM)	0.062 (≈ 0.0829 µM)	0.125 (≈ 0.167 µM)	0.062 (≈ 0.0829 µM)	256 (≈ 342 µM)
C=CCO[C@@H]1C[C@@H](C)C(=O)[C@H](C)[C@H]2OC(=O)O[C@]2(C)[C@@H](CC)OC(=O)[C@H](C)[C@@H](OC(=O)Cc2ccc(Cl)cc2)[C@H](C)[C@H]1OC1O[C@H](C)C[C@H](N(C)C)[C@H]1O (stereo not given in full)	4 (≈ 5.13 µM)	4 (≈ 5.13 µM)	8 (≈ 10.3 µM)	16 (≈ 20.5 µM)	16 (≈ 20.5 µM)	16 (≈ 20.5 µM)	2 (≈ 2.56 µM)	2 (≈ 2.56 µM)	2 (≈ 2.56 µM)	32 (≈ 41 µM)	16 (≈ 20.5 µM)	16 (≈ 20.5 µM)	1 (≈ 1.28 µM)	8 (≈ 10.3 µM)	16 (≈ 20.5 µM)	8 (≈ 10.3 µM)	0.5 (≈ 0.641 µM)	0.5 (≈ 0.641 µM)	0.25 (≈ 0.32 µM)	8 (≈ 10.3 µM)
C=CCO[C@@H]1C[C@@H](C)C(=O)[C@H](C)[C@H]2OC(=O)O[C@]2(C)[C@@H](CC)OC(=O)[C@H](C)[C@@H](OC(=O)Cc2cccnc2)[C@H](C)[C@H]1O[C@@H]1O[C@H](C)C[C@H](N(C)C)[C@H]1O	1 (≈ 1.34 µM)	1 (≈ 1.34 µM)	2 (≈ 2.68 µM)	32 (≈ 42.8 µM)	32 (≈ 42.8 µM)	8 (≈ 10.7 µM)	0.5 (≈ 0.669 µM)	0.5 (≈ 0.669 µM)	0.5 (≈ 0.669 µM)	32 (≈ 42.8 µM)	32 (≈ 42.8 µM)	2 (≈ 2.68 µM)	0.25 (≈ 0.335 µM)	2 (≈ 2.68 µM)	2 (≈ 2.68 µM)	2 (≈ 2.68 µM)	0.125 (≈ 0.167 µM)	0.125 (≈ 0.167 µM)	0.125 (≈ 0.167 µM)	16 (≈ 21.4 µM)
C=CCO[C@@H]1C[C@@H](C)C(=O)[C@H](C)[C@H]2OC(=O)O[C@]2(C)[C@@H](CC)OC(=O)[C@H](C)[C@@H](OC(=O)Cc2ccc3c(c2)OCO3)[C@H](C)[C@H]1O[C@@H]1O[C@H](C)C[C@H](N(C)C)[C@H]1O	0.5 (≈ 0.633 µM)	0.5 (≈ 0.633 µM)	1 (≈ 1.27 µM)	32 (≈ 40.5 µM)	32 (≈ 40.5 µM)	1 (≈ 1.27 µM)	0.5 (≈ 0.633 µM)	0.5 (≈ 0.633 µM)	0.5 (≈ 0.633 µM)	32 (≈ 40.5 µM)	1 (≈ 1.27 µM)	1 (≈ 1.27 µM)	0.062 (≈ 0.0785 µM)	4 (≈ 5.06 µM)	8 (≈ 10.1 µM)	2 (≈ 2.53 µM)	0.016 (≈ 0.0203 µM)	0.031 (≈ 0.0392 µM)	0.016 (≈ 0.0203 µM)	16 (≈ 20.3 µM)
C=CCO[C@@H]1C[C@@H](C)C(=O)[C@H](C)[C@H]2OC(=O)O[C@]2(C)[C@@H](CC)OC(=O)[C@H](C)[C@@H](OC(=O)CCc2c[nH]c3ccccc23)[C@H](C)[C@H]1O[C@@H]1O[C@H](C)C[C@H](N(C)C)[C@H]1O	32 (≈ 40.1 µM)	32 (≈ 40.1 µM)	32 (≈ 40.1 µM)	32 (≈ 40.1 µM)	32 (≈ 40.1 µM)	32 (≈ 40.1 µM)	32 (≈ 40.1 µM)	32 (≈ 40.1 µM)	32 (≈ 40.1 µM)	32 (≈ 40.1 µM)	32 (≈ 40.1 µM)	32 (≈ 40.1 µM)	4 (≈ 5.01 µM)	32 (≈ 40.1 µM)	32 (≈ 40.1 µM)	32 (≈ 40.1 µM)	1 (≈ 1.25 µM)	1 (≈ 1.25 µM)	1 (≈ 1.25 µM)	32 (≈ 40.1 µM)
